The results in this text go back to patent US11987582B2, “Maleate salts of triazolopyrazine derivatives, compositions, methods of use, and processes of manufacturing the same” (ABION Inc, priority 2021, dated 2024).

The data set can be described thus: long-term stability study, chemical purity by HPLC. Type of data set: physicochemical. Particulars: for chemical degradation: up to 15 months, in words. The procedure:
The physical and chemical stability study was performed on the compounds of Chemical Formula 2 and Chemical Formula 1 (for reference purposes). The long-term stability study was conducted at defined temperatures and relative humidity levels (25° C./60% relative humidity (RH) and 40° C./75% RH). At regular intervals, a solid sample was analyzed by XRPD, TGMS and HPLC.
The results of the chemical purity determination for the compounds of Chemical Formula 1 and Chemical Formula 2 after 1-, 3- and 15-month exposure to 25° C./60% RH and 40° C./75% RH is presented in FIGS. 4 and 5.

Consider `CN1CCN(Cc2ccc(-c3cnc(N4CCOC(Cn5nnc6ncc(-c7cnn(C)c7)nc65)C4)nc3)cc2)CC1.O=C(O)/C=C\C(=O)O` (stereo not drawn) [Chemical Formula 2], for which the “chemical purity greater than the free base form” value (15 months at 40° C. and 75% relative humidity) is “at least 4.7%”. Besides, the chemical degradation result is listed as “did not show significant chemical degradation” (25° C./60% RH) and “remained chemically stable up to 15 months” (40° C./75% RH).
